# Data taken from patent US7655434B2, “Live-cell biosensor polypeptides and methods of use” (The Board of Trustees of the Leland Stanford Junior …, priority 2004, dated 2010).
# What was measured:
# RBL-FMB cells [1] = experiment: Mitotic index by immunofluorescence; format: cell-based, rat; conditions: 20 hours
# Experimental: Mitotic index was determined as previously described (Jordan et al., […] 56:816-825 (1996)). Briefly, 15,000 RBL-FMB cells plated in 8 well Labtek chambers (Nalge Nunc, Naperville, Ill.) and exposed to paclitaxel (Sigma Aldrich, St Louis) for 20 hours. The cells were fixed and permeablized with −20° C. cold methanol for 5 minutes at −20° C. They were blocked with 10% fetal calf serum in PBS for 10 minutes at RT. Alpha Tubulin was detected with a mouse monoclonal antibody clone GTU-88 (Sigma Aldrich, St. Louis Mo.). DNA was stained with Hoescht 33342 (Molecular Probes, Eugene, Oreg.). Only cells that were clearly in metaphase or anaphase were counted as a percentage of the total. The cells were imaged with a Zeiss epifluorescence microscope (Carl Zeiss, Germany).
# Hela cells = conditions: cited from earlier work
# RBL-FMB cells [2] = experiment: TIRF based mitosis monitoring system, cells treated with TAXOL; format: cell-based, rat
# Experimental: Rat Basophilic Leukemia Cells (RBL) were grown in Dulbecco's modified Eagles Media (DMEM) supplemented with 10% fetal calf serum, 2 mM glutamine, 100 U/ml penicillin, and 100 μg/ml streptomycin (all from Invitrogen, Carlsbad, Calif.). 10 million cells were electroporated (BioRad, Hercules, Calif.) in 600 μl of media with 40 μg of pFMB. These were allowed to recover for 48 hours and cells stably expressing the biosensor were selected for by the addition of 1 μg/ml Geneticin (Invitrogen, Carlsbad, Calif.). 10 days after the addition of Geneticin the cells were sorted based on EYFP fluorescence using a fluorescence activated cell sorter.
# TIRF microscopy was carried out as described previously (Tengholm et al., Science's Stke. 2003 PL4 (2004)). Briefly, an argon-ion laser provided 514-nm laser light for excitation of the biosensor (Lexel Laser, Fremont, Calif.). Exposure of the RBL-FMBs to laser light was controlled by a Uniblitz shutter (Vincent, Rochester, N.Y.). Laser light homogenized with a rotating diffuser (Physical Optics, Torrance, Calif.) was refocused onto a dove prism at an angle yielding total internal reflection (>[…] for a glass-water interface at 37° C.). The excitation light could also be redirected to the back of the microscope and down to the sample via appropriate dichroic mirrors (Chroma Technology, Brattleboro, Vt.) for epi-illumination. Fluorescence was recorded at 530 nm with bandpass interference filters (30-50 nm half-bandwidth; Chroma Technology, Brattleboro, Vt.) mounted in a Sutter Lambda 10-2 filter wheel (Sutter Instrument, Novato, Calif.). Images were captured every 2 minutes with a cooled CCD camera (Micromax; Roper Scientific, Tuscon, Azir.). The shutters, filter wheel, and camera were controlled by Metamorph software (Universal Imaging, Downington, Pa.).
# Both systems were heated with an ASI 400 Air Stream Incubator (Nevtek, Burnsville, Va.). The cells were perfused with fresh growth media saturated with 10% CO2 that was heated with an inline solution heater (Warner Instruments, Hamden, Conn.).
# Metamorph software (Universal Imaging, Downington Pa.) was used for data image analysis. Fluorescence intensity was recorded over the entire stack of images by drawing regions of interest over each mitotic cell. Background correction was performed by subtracting the intensity of a background region of identical size next to each cell to account for the somewhat uneven background in the field of view over the time of the data collection. Background corrected intensity values were exported to a Microsoft Excel file and plotted. NEB was determined as the time just prior to the dramatic increase in fluorescence intensity. Anaphase onset is defined as the time point immediately preceding the second smaller increase in fluorescence. NER was determined as the point in time when fluorescence intensity starts to decrease back to baseline levels.
smiles,measurement,setting,value
"CC(=O)O[C@H]1C(=O)[C@@]2(C)[C@H]([C@H](OC(=O)c3ccccc3)[C@]3(O)C[C@H](OC(=O)[C@H](O)[C@@H](NC(=O)c4ccccc4)c4ccccc4)C(C)=C1C3(C)C)[C@]1(OC(C)=O)CO[C@@H]1C[C@@H]2O [TAXOL™, paclitaxel]",percentage of mitotic cells (mitotic index),RBL-FMB cells [1]; higher taxol concentrations,increased
same,effects on mitotic index,RBL-FMB cells [1]; low TAXOL concentrations,went unseen
same,"microtubule stabilization effect, concentration range",Hela cells,nM concentration range
same,Mitotic arrest,RBL-FMB cells [2]; 10 nM,arrested for the duration of the experiment
same,Anaphase-NER Ave.,RBL-FMB cells [2]; [Taxol] 0.01,8.4 min
same,Anaphase-NER Med.,RBL-FMB cells [2]; [Taxol] 0.01,8 min
same,NEB-NER Med.,RBL-FMB cells [2]; [Taxol] 0.01,34 min
same,NEB-anaphase Ave.,RBL-FMB cells [2]; [Taxol] 0.01,28.4 min
same,NEB-anaphase Med.,RBL-FMB cells [2]; [Taxol] 0.01,26 min
same,NEB-NER Ave.,RBL-FMB cells [2]; [Taxol] 0.01 (10 pM in text),35.6 min
same,Anaphase-NER Ave.,RBL-FMB cells [2]; [Taxol] 0.1,8.8 min
same,Anaphase-NER Med.,RBL-FMB cells [2]; [Taxol] 0.1,8 min
same,NEB-NER Ave.,RBL-FMB cells [2]; [Taxol] 0.1,38.1 min
same,NEB-NER Med.,RBL-FMB cells [2]; [Taxol] 0.1,36 min
same,NEB-anaphase Ave.,RBL-FMB cells [2]; [Taxol] 0.1,29.6 min
same,NEB-anaphase Med.,RBL-FMB cells [2]; [Taxol] 0.1,26 min
same,Anaphase-NER Ave.,RBL-FMB cells [2]; [Taxol] 1,10.3 min
same,Anaphase-NER Med.,RBL-FMB cells [2]; [Taxol] 1,10 min
same,NEB-NER Ave.,RBL-FMB cells [2]; [Taxol] 1,40.0 min
same,NEB-NER Med.,RBL-FMB cells [2]; [Taxol] 1,38 min
same,NEB-anaphase Ave.,RBL-FMB cells [2]; [Taxol] 1,29.8 min
same,NEB-anaphase Med.,RBL-FMB cells [2]; [Taxol] 1,28 min
same,Anaphase-NER Ave.,RBL-FMB cells [2]; [Taxol] 3,10.3 min
same,Anaphase-NER Med.,RBL-FMB cells [2]; [Taxol] 3,8 min
same,NEB-NER Ave.,RBL-FMB cells [2]; [Taxol] 3,62.8 min
same,NEB-NER Med.,RBL-FMB cells [2]; [Taxol] 3,50 min
same,NEB-anaphase Ave.,RBL-FMB cells [2]; [Taxol] 3,44.6 min
same,NEB-anaphase Med.,RBL-FMB cells [2]; [Taxol] 3,34 min
same,Anaphase-NER Ave.,RBL-FMB cells [2]; [Taxol] 4,9.8 min
same,Anaphase-NER Med.,RBL-FMB cells [2]; [Taxol] 4,10 min
same,NEB-NER Ave.,RBL-FMB cells [2]; [Taxol] 4,89.7 min
same,NEB-NER Med.,RBL-FMB cells [2]; [Taxol] 4,70 min
same,NEB-anaphase Ave.,RBL-FMB cells [2]; [Taxol] 4,77.7 min
same,NEB-anaphase Med.,RBL-FMB cells [2]; [Taxol] 4,60 min
same,Anaphase-NER Ave.,RBL-FMB cells [2]; [Taxol] 5,11.3 min
same,Anaphase-NER Med.,RBL-FMB cells [2]; [Taxol] 5,12 min
same,NEB-NER Ave.,RBL-FMB cells [2]; [Taxol] 5,112.2 min
same,NEB-NER Med.,RBL-FMB cells [2]; [Taxol] 5,102 min
same,NEB-anaphase Ave.,RBL-FMB cells [2]; [Taxol] 5,107.4 min
same,NEB-anaphase Med.,RBL-FMB cells [2]; [Taxol] 5,114 min
same,Anaphase-NER Ave.,RBL-FMB cells [2]; [Taxol] 6,13.3 min
same,Anaphase-NER Med.,RBL-FMB cells [2]; [Taxol] 6,11 min
same,NEB-NER Ave.,RBL-FMB cells [2]; [Taxol] 6,194.5 min
same,NEB-NER Med.,RBL-FMB cells [2]; [Taxol] 6,186 min
same,NEB-anaphase Ave.,RBL-FMB cells [2]; [Taxol] 6,183.3 min
same,NEB-anaphase Med.,RBL-FMB cells [2]; [Taxol] 6,175 min
same,Anaphase-NER Ave.,RBL-FMB cells [2]; [Taxol] 7.5,12.3 min
same,Anaphase-NER Med.,RBL-FMB cells [2]; [Taxol] 7.5,12 min
same,NEB-NER Ave.,RBL-FMB cells [2]; [Taxol] 7.5,202.1 min
same,NEB-NER Med.,RBL-FMB cells [2]; [Taxol] 7.5,195 min
same,NEB-anaphase Ave.,RBL-FMB cells [2]; [Taxol] 7.5,171.1 min
same,NEB-anaphase Med.,RBL-FMB cells [2]; [Taxol] 7.5,166 min
same,Anaphase-NER Ave.,RBL-FMB cells [2]; [Taxol] 8,12.1 min
same,Anaphase-NER Med.,RBL-FMB cells [2]; [Taxol] 8,12 min
same,NEB-NER Ave.,RBL-FMB cells [2]; [Taxol] 8,192.7 min
same,NEB-NER Med.,RBL-FMB cells [2]; [Taxol] 8,189 min
same,NEB-anaphase Ave.,RBL-FMB cells [2]; [Taxol] 8,180.3 min
same,NEB-anaphase Med.,RBL-FMB cells [2]; [Taxol] 8,178 min
same,anaphase to NER phase (post-checkpoint),RBL-FMB cells [2]; increasing TAXOL,smaller and ungraded effects
same,timing between NEB and anaphase (pre-checkpoint mitosis phase),RBL-FMB cells [2]; increasing TAXOL,significantly prolonged
